Reference: patent US9096625B2, “BCL-2/BCL-XL inhibitors and therapeutic methods using the same” (THE REGENTS OF THE UNIVERSITY OF MICHIGAN, priority 2013, dated 2015)

Columns and labels:
Mcl-1 [1] = molecular target: T1, Mcl-1 (Homo sapiens, UniProt Q07820); assay: Fluorescence polarization (FP)-based binding assay, Mcl-1; details: FP saturation, 2 nM probe, increasing protein concentrations; read-out: Kd of fluorescent probe to Mcl-1
Target sequence in this assay (Q07820 whole entry): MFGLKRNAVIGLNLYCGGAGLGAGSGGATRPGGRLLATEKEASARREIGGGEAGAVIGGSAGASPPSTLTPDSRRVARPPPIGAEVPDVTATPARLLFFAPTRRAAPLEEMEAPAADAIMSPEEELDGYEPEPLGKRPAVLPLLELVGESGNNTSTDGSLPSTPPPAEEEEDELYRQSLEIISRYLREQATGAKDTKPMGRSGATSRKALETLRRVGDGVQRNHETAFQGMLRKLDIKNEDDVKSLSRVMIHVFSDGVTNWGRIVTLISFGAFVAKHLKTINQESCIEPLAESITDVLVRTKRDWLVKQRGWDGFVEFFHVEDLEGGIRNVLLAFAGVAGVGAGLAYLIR

Mcl-1 [2] = molecular target: T1, Mcl-1; details: versus Bcl-2, Bcl-xL, Bcl-w; cited from earlier work
Target sequence in this assay (Q07820 whole entry, species assumed): as the sequence (Q07820 whole entry) above

A1 = molecular target: T2, A1 (Homo sapiens, UniProt Q16548); details: versus Bcl-2, Bcl-xL, Bcl-w; cited from earlier work
T2 sequence (Q16548 1-175): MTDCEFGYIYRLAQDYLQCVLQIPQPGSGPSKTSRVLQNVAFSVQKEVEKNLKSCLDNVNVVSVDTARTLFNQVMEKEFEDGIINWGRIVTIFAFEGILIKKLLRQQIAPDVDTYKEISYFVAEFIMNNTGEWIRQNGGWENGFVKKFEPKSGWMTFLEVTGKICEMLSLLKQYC

Row | Compound | Kd (Mcl-1 [1]) | specificity over Mcl-1 (Mcl-1 [2]) | specificity over A1 (A1)
1 | Flu-BID: homemade fluorescein labeled BID (79-99) peptide, fluorescent probe for Mcl-1 FP assay | 6.8 ± 1.5 nM | – | –
2 | CN(C)CC[C@H](CSc1ccccc1)Nc1ccc(S(=O)(=O)NC(=O)c2ccc(N3CCN(Cc4ccccc4-c4ccc(Cl)cc4)CC3)cc2)cc1[N+](=O)[O-] [ABT-737] | – | high specificity | high specificity
3 | CC1(C)CCC(c2ccc(Cl)cc2)=C(CN2CCN(c3ccc(C(=O)NS(=O)(=O)c4ccc(N[C@H](CCN5CCOCC5)CSc5ccccc5)c(S(=O)(=O)C(F)(F)F)c4)cc3)CC2)C1 [ABT-263] | – | high specificity | high specificity
